Measured values reported in paper PMC4457528, “Identification of Novel Small Molecule Inhibitors of Oncogenic RET Kinase” (PLoS ONE, 2015).
Read-outs that look alike come from different tables or passages of the source.

How the values were obtained:
Assay in all cases: KinomeScan kinase panel, single concentration 10 µM
Type in all cases: binding
[1] = molecular target: T1, KinomeScan kinase panel (Homo sapiens, UniProt P78368); conditions: CSNK1G2, 10 µM
T1 construct: purchased DiscoveRx (KinomeScan)

[2] = molecular target: T2, KinomeScan kinase panel (Homo sapiens, UniProt O75385); conditions: kinase ULK1; 10 µM
T2 construct: purchased DiscoveRx (KinomeScan)
T2 sequence (O75385 1-1050): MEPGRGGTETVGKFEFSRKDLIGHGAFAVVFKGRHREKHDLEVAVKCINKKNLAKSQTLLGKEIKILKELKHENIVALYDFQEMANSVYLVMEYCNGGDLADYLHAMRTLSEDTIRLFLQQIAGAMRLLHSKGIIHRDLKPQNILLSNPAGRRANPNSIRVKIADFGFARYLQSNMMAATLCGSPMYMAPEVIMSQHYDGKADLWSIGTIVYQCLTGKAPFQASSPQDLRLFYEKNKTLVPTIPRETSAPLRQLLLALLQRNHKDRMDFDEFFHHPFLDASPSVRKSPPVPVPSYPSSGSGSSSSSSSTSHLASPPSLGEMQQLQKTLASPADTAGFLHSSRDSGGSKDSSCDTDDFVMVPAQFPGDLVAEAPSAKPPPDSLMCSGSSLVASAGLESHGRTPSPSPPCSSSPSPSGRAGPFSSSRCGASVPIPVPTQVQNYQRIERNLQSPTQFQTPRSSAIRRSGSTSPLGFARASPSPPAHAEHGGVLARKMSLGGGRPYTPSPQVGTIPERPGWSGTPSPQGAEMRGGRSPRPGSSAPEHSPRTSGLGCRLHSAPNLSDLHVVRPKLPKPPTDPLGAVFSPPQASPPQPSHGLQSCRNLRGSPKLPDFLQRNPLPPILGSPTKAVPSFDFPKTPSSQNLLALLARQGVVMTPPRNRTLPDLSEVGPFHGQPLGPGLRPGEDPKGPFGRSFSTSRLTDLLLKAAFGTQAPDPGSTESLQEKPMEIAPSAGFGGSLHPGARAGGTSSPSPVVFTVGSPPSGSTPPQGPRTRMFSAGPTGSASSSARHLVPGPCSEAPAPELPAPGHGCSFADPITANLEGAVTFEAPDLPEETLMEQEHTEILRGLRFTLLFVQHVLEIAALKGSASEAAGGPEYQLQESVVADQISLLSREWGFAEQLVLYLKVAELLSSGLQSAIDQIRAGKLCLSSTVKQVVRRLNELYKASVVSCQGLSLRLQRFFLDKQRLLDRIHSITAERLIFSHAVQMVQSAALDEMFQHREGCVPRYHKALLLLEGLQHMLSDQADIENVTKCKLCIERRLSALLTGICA

[3] = molecular target: T3, KinomeScan kinase panel (Homo sapiens, UniProt Q59H18); conditions: 10 µM, read-out: score (%)
T3 construct: purchased DiscoveRx (KinomeScan)
T3 sequence (Q59H18 1-835): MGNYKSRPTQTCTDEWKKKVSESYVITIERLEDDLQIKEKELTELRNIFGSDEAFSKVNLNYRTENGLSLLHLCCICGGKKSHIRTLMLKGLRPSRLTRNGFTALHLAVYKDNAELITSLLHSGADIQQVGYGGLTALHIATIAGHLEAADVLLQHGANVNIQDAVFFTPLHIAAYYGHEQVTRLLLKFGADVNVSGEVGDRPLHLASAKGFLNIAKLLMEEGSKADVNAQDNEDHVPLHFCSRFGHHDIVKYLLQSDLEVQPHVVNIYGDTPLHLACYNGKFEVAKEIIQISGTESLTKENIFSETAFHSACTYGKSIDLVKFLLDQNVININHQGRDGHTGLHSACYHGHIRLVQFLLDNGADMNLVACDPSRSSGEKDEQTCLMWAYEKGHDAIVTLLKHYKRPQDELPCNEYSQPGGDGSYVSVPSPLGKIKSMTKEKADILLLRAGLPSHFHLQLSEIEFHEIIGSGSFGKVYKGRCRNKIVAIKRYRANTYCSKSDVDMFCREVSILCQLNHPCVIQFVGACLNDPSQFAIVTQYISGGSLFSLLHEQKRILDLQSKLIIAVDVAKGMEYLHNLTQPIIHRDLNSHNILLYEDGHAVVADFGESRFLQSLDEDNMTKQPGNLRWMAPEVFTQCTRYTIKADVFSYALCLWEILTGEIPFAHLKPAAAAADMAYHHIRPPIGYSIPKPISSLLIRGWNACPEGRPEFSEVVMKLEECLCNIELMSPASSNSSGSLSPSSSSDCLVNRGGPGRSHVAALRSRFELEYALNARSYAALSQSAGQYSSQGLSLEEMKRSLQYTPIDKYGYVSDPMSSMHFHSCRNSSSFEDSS

[4] = molecular target: T4, KinomeScan kinase panel (Homo sapiens, UniProt O43353); conditions: read-out: score (%)
T4 construct: purchased DiscoveRx (KinomeScan)

[5] = molecular target: T5, KinomeScan kinase panel (Homo sapiens, UniProt P45983); conditions: JNK1, 10 µM
T5 construct: purchased DiscoveRx (KinomeScan)

[6] = molecular target: T6, KinomeScan kinase panel (Homo sapiens, UniProt P00519, F317L); conditions: 10 µM, read-out: score (%)
T6 construct: purchased DiscoveRx (KinomeScan)
T6 sequence (P00519 whole entry F317L): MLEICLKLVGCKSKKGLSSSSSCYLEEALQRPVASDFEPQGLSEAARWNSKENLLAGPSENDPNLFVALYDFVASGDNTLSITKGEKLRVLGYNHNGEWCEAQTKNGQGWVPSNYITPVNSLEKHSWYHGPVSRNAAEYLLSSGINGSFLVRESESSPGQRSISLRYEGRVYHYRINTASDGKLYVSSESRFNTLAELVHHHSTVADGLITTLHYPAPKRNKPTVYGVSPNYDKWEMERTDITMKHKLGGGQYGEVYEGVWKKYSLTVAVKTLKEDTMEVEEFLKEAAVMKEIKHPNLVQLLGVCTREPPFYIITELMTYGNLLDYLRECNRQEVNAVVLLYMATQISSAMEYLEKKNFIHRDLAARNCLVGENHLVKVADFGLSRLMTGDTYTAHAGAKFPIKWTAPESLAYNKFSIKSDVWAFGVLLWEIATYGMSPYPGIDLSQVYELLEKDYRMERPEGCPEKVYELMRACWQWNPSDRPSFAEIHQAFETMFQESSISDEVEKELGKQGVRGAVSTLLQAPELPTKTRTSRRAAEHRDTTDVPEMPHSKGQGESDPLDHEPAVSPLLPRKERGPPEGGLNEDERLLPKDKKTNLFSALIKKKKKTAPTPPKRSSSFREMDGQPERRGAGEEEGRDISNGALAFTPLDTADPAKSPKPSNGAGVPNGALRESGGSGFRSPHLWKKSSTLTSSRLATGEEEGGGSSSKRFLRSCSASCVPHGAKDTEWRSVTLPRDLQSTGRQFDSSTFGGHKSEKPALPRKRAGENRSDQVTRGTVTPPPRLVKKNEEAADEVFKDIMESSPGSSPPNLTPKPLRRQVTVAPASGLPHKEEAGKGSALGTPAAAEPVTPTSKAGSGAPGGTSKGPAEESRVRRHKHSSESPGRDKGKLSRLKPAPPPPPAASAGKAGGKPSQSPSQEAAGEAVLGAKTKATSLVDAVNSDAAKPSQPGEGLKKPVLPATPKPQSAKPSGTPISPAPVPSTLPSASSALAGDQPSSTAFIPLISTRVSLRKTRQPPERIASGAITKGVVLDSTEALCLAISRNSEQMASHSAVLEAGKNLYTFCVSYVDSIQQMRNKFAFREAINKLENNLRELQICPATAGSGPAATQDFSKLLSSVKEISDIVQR

T5 sequence (P45983 whole entry): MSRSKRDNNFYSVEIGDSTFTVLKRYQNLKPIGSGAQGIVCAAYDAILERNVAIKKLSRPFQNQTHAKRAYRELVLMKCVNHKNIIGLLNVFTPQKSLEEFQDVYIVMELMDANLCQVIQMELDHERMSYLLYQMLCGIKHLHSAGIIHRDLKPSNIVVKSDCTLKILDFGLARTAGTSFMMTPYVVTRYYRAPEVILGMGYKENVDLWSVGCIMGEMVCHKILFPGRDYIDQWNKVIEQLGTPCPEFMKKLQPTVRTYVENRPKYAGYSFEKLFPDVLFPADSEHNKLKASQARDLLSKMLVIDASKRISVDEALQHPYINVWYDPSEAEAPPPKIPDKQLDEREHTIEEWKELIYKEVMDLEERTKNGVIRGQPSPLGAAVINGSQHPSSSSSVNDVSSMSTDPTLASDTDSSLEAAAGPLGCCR
T4 sequence (O43353 whole entry): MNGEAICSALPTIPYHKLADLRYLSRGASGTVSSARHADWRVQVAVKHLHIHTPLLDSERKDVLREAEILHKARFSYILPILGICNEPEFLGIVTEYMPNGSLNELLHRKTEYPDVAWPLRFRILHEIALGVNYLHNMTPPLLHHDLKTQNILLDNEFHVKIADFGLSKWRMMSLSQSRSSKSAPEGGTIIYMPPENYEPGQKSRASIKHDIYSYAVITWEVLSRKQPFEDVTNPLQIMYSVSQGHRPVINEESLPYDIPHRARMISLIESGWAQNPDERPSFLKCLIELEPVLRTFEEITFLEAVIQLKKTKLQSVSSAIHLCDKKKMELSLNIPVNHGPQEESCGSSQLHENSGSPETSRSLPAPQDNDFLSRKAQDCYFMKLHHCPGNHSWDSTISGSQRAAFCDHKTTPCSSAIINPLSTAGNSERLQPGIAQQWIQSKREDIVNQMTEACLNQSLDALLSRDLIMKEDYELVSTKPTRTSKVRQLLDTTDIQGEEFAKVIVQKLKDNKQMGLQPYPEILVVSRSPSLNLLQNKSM
T1 sequence (P78368 whole entry): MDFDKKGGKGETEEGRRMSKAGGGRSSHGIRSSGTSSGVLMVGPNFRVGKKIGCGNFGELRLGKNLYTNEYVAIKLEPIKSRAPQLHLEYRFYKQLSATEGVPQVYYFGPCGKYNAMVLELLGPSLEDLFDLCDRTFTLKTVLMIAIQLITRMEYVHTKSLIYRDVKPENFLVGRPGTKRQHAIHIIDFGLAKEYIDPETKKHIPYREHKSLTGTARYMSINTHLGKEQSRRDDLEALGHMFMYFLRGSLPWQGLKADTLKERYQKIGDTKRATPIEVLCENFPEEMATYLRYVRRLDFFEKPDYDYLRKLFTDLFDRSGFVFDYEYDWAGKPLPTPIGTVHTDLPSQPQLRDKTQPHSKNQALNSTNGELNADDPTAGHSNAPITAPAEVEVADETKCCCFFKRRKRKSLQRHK

SMILES | score (%) [1] | score (%) [2] | remaining binding at 10 µM ([3]; kinase TNNI3K) | remaining binding at 10 µM ([4]; RIPK2, 10 µM) | score (%) [5] | remaining binding at 10 µM ([6]; ABL1(F317L)) | remaining binding at 10 µM ([3]; TNNI3K) | remaining binding at 10 µM ([4]; kinase RIPK2, 10 µM) | remaining binding at 10 µM ([6]; ABL1(F317L)-nonphosphorylated) | remaining binding at 10 µM ([6]; ABL1(F317L)-phosphorylated)
CCN1CCN(Cc2ccc(NC(=O)c3ccc(C)c(NC(=O)c4cncc(-c5cccs5)c4)c3)cc2C(F)(F)F)CC1 [ALW-II-41-27] | 20% | nb (Hits values higher than 30% were considered negative (no binding: nb)) | 3.8% | 3.1% | nb (Hits values higher than 30% were considered negative (no binding: nb)) | 0.2% | – | – | – | –
CCN1CCN(Cc2ccc(NC(=O)c3ccc(C)c(/C=C/c4cnc5[nH]ccc5c4Cl)c3)cc2C(F)(F)F)CC1 [HG-6-63-01, (E)-3-(2-(4-chloro-1H-pyrrolo[2,3-b]pyridin-5-yl)vinyl)-N-(4-((4-ethylpiperazin-1-yl)methyl)-3-(trifluoromethyl)phenyl)-4-methylbenzamide] | nb (Hits values higher than 30% were considered negative (no binding: nb)) | 8.7% | – | 1.6% | 6.6% | 0.1% | 0.9% | – | – | –
CCN1CCN(Cc2ccc(NC(=O)c3ccc(C)c(C#Cc4cccnc4)c3)cc2C(F)(F)F)CC1 [XMD15-44] | nb (Hits values higher than 30% were considered negative (no binding: nb)) | 24% | 0% | – | 0.55% | – | – | 0.45% | 0% | 0.85%
